Results from patent US8202865B2, “Oxadiazole derivatives” (Merck Serono SA, priority 2007, dated 2012).
pEC50: −log10 of the molar value. Counter-ions that a name gives are not always drawn.

Target: T1, S1P1 (Homo sapiens, UniProt P21453)
T1 construct: expressed in transfected cells; host or cells: CHO cells (membranes)
Experiment: 35S-GTPγS binding, S1P1 membranes
Format: biochemical
Conditions: membranes from CHO cells expressing S1P1; 60 min 30° C.
Description: Receptor binding assay: Membranes were prepared from CHO cells expressing S1P1 or S1P3 for use in ligand and […] binding studies. Cells were suspended in 50 mM TRIS, pH 7.4, 2 mM EDTA, 250 mM Sucrose (buffer A) and 1× Complete protease inhibitor cocktail (Roche), and disrupted at 4° C. by N2 decompression using a cell disruption bomb (Parr Instrument). Following centrifugation at 1000 RPM for 10 min at 4° C., the supernatant was suspended in buffer A and centrifuged again at 19000 RPM for 60 min at 4° C. The pellet was then suspended in 10 mM HEPES, pH 7.4, 1 mM EDTA, 250 mM Sucrose (Buffer B), and 1× Complete EDTA-free protease inhibitor cocktail and homogenized using a potter. Membranes were flash frozen in liquid N2 and stored at −80° C. [33P]sphingosine 1-phosphate (3000 Ci/mmol; American Radiolabeled Chemicals, Inc.) was added to test compounds in DMSO. Membranes and WGA SPA beads (GE Healthcare) were added to give a final volume of 100 μl in 96-well plates with assay concentrations of 25 pM or 10 pM [33P]sphingosine 1-phosphate (respectively for S1P1 or S1P3), 50 mM HEPES, pH 7.5, 5 mM MgCl2, 100 mM NaCl, 0.4% fatty acid-free BSA, 1-5 μg/well of proteins and 100 μg/well of WGA SPA beads. Binding was performed for 60 min at RT on a shaker and bound radioactivity was measured on a PerkinElmer 1450 MicroBeta counter. Specific binding was calculated by subtracting remaining radioactivity in the presence of 1000-fold excess of unlabeled S1P. Binding data were analyzed using the GraphPad Prism program.
Measurements of ^35S-GTPγS Binding: Membranes (1 to 10 μg protein) prepared as described above, were incubated in 96-well Scintiplates (PerkinElmer) with test compounds diluted in DMSO, in 180 μl of 20 mM HEPES, pH 7.4, 10 mM MgCl2, 2 μg/well Saponin, 0.2% fatty acid free BSA (Assay buffer), 140 mM NaCl and 1.7 μM GDP. The assay was initiated with the addition of 20 μl of 1.5 nM [35S]-GTPγS (1100 Ci/mmol; GE Healthcare) in assay buffer. After 60 min incubation at 30° C. on a shaker, plates were centrifuged for 10 min at 2000 RPM. Supernatant was discarded and membrane bound radioactivity was measured on a PerkinElmer 1450 MicroBeta counter. Triplicate samples were averaged and expressed as % response relative to S1P activation in absence of compound (n=2).

T1 sequence (P21453 whole entry, species assumed): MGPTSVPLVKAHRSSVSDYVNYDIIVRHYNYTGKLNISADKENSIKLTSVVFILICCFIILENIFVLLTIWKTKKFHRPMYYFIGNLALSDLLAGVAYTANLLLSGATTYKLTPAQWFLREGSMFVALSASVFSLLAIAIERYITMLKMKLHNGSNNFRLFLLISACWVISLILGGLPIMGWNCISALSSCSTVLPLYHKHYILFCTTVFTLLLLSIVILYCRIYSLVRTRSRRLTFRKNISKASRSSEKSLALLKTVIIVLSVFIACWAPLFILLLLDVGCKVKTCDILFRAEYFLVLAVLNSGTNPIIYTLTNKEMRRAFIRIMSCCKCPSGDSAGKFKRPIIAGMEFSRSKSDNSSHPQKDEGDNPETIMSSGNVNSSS

SMILES | pEC50
COCc1cc(-c2nc(-c3ccc(OCCCC(=O)O)c(F)c3)no2)ccc1N1CCCCC1C (stereo not drawn) [Example 165, 4-(2-fluoro-4-{5-[3-(methoxymethyl)-4-(2-methylpiperidin-1-yl)phenyl]-1,2,4-oxadiazol-3-yl}phenoxy)butanoic acid] | 8.80
COCc1cc(-c2nc(-c3cccc(CCOCC(=O)O)c3)no2)ccc1-c1ccccc1C [Example 161, [2-(3-{5-[2-(methoxymethyl)-2′-methylbiphenyl-4-yl]-1,2,4-oxadiazol-3-yl}phenyl)ethoxy]acetic acid] | 8.68
CC(C)COc1ncc(-c2nc(-c3ccc(OCC(=O)O)c(F)c3)no2)cc1Cl [Example 49, {4-[5-(5-chloro-6-isobutoxypyridin-3-yl)-1,2,4-oxadiazol-3-yl]-2-fluorophenoxy}acetic acid] | 5.89
COCc1cc(-c2nc(-c3cccc(CN(CC(=O)OC(C)(C)C)C(=O)OC(C)(C)C)c3)no2)ccc1-c1ccccc1C [Example 149, Tert-butyl N-(tert-butoxycarbonyl)-N-(3-{5-[2-(methoxymethyl)-2′-methylbiphenyl-4-yl]-1,2,4-oxadiazol-3-yl}benzyl)glycinate] | 5.90
Cc1cc(-c2nc(-c3ccc(C(=O)O)c(F)c3)no2)ccc1-c1c(C)noc1C [Example 25, 4-{5-[4-(3,5-dimethylisoxazol-4-yl)-3-methylphenyl]-1,2,4-oxadiazol-3-yl}-2-fluorobenzoic acid] | 4.85
COCc1cc(-c2nc(-c3cc(Cl)c(C(=O)O)cc3F)no2)ccc1-c1ccccc1C [Example 109, 2-chloro-5-fluoro-4-{5-[2-(methoxymethyl)-2′-methylbiphenyl-4-yl]-1,2,4-oxadiazol-3-yl}benzoic acid] | 7.05
COCc1cc(-c2nc(-c3ccc(C(=O)N4CC(F)(F)C4)c(F)c3)no2)ccc1-c1ccccc1C [Example 175, 3-{4-[(3,3-difluoroazetidin-1-yl)carbonyl]-3-fluorophenyl}-5-[2-(methoxymethyl)-2′-methylbiphenyl-4-yl]-1,2,4-oxadiazole] | 6.89
CC(=O)Nc1cc(-c2nc(-c3ccc(C(=O)O)c(F)c3)no2)ccc1N1CCCCC1C (stereo not drawn) [Example 65, 4-{5-[3-(acetylamino)-4-(2-methylpiperidin-1-yl)phenyl]-1,2,4-oxadiazol-3-yl}-2-fluorobenzoic acid] | 4.98
O=C(O)c1ccc(-c2noc(-c3ccc(N4CCCCC4)c([N+](=O)[O-])c3)n2)cc1F [Example 14, 2-fluoro-4-[5-(3-nitro-4-piperidin-1-ylphenyl)-1,2,4-oxadiazol-3-yl]benzoic acid] | 5.29
COCC1CCCN1c1ncc(-c2nc(-c3ccc(S(N)(=O)=O)cc3)no2)cc1C (stereo not drawn) [Example 41, 4-(5-{6-[2-(methoxymethyl)pyrrolidin-1-yl]-5-methylpyridin-3-yl}-1,2,4-oxadiazol-3-yl)benzenesulfonamide] | 5.96
Cc1ccccc1-c1ccc(-c2nc(-c3ccc(O)c(C(=O)O)c3)no2)cc1C [Example 43, 5-[5-(2,2′-dimethylbiphenyl-4-yl)-1,2,4-oxadiazol-3-yl]-2-hydroxybenzoic acid] | 5.36
COCc1cc(-c2nc(-c3cccc(C(=O)NCCCC(=O)OC)c3)no2)ccc1-c1ccccc1C [Example 137, Methyl 4-[(3-{5-[2-(methoxymethyl)-2′-methylbiphenyl-4-yl]-1,2,4-oxadiazol-3-yl}benzoyl)amino]butanoate] | 7.60
COCCOc1cc(-c2nc(-c3ccc(C(=O)O)c(F)c3)no2)ccc1-c1ccccc1C [Example 103, 2-fluoro-4-{5-[2-(2-methoxyethoxy)-2′-methylbiphenyl-4-yl]-1,2,4-oxadiazol-3-yl}benzoic acid] | 6.59
CNCc1cc(-c2nc(-c3ccc(C(=O)O)c(F)c3)no2)ccc1-c1ccccc1C [Example 77, 2-fluoro-4-(5-{2′-methyl-2-[(methylamino)methyl]biphenyl-4-yl}-1,2,4-oxadiazol-3-yl)benzoic acid, Hydrochloride salt] | 5.54
Cc1cc(-c2nc(-c3ccc(C(=O)O)c(F)c3)no2)ccc1-c1ccccc1C(F)(F)F [Example 8, 2-fluoro-4-{5-[2-methyl-2′-(trifluoromethyl)biphenyl-4-yl]-1,2,4-oxadiazol-3-yl}benzoic acid] | 6.07
Cc1ccccc1-c1ccc(-c2nc(-c3ccc(C(=O)O)c(F)c3)no2)cc1 [Example 5, 2-fluoro-4-[5-(2′-methylbiphenyl-4-yl)-1,2,4-oxadiazol-3-yl]benzoic acid] | 5.29
COCc1cc(-c2nc(-c3ccc(C(=O)O)c(F)c3)no2)ccc1-c1ccc(F)cc1C [Example 94, 2-fluoro-4-{5-[4′-fluoro-2-(methoxymethyl)-2′-methylbiphenyl-4-yl]-1,2,4-oxadiazol-3-yl}benzoic acid] | 6.29
COCc1cc(-c2nc(-c3ccc(C(=O)NCCC(=O)OC)c(F)c3)no2)ccc1-c1ccccc1C [Example 117, Methyl N-(2-fluoro-4-{5-[2-(methoxymethyl)-2′-methylbiphenyl-4-yl]-1,2,4-oxadiazol-3-yl}benzoyl)-beta-alaninate] | 8.05
Cc1ccccc1-c1ccc(-c2nc(-c3ccc(C(=O)O)c(F)c3)no2)cc1S(C)(=O)=O [Example 83, 2-fluoro-4-{5-[2′-methyl-2-(methylsulfonyl)biphenyl-4-yl]-1,2,4-oxadiazol-3-yl}benzoic acid] | 5.40
COCCNCc1cccc(-c2noc(-c3ccc(-c4ccccc4C)c(COC)c3)n2)c1 [Example 188, 2-methoxy-N-(3-{5-[2-(methoxymethyl)-2′-methylbiphenyl-4-yl]-1,2,4-oxadiazol-3-yl}benzyl)ethanamine, Hydrochloride salt] | 8.40
COCc1cc(-c2nc(-c3cc(C(=O)OC)ccc3OC)no2)ccc1-c1ccccc1C [Example 106, methyl 4-methoxy-3-{5-[2-(methoxymethyl)-2′-methylbiphenyl-4-yl]-1,2,4-oxadiazol-3-yl}benzoate] | 7.30
Cc1cc(-c2nc(-c3ccc(C(=O)O)c(F)c3)no2)ccc1-c1ccccc1O [Example 32, 2-fluoro-4-[5-(2′-hydroxy-2-methylbiphenyl-4-yl)-1,2,4-oxadiazol-3-yl]benzoic acid] | 5.53
Cc1ccccc1-c1ccc(-c2nc(-c3ccc(C(=O)O)c(F)c3)no2)cc1O [Example 99, 2-fluoro-4-[5-(2-hydroxy-2′-methylbiphenyl-4-yl)-1,2,4-oxadiazol-3-yl]benzoic acid] | 5.11
CC(C)COc1ccc(-c2nc(-c3ccc(C(=O)O)c(F)c3)no2)cc1NS(C)(=O)=O [Example 64, 2-fluoro-4-(5-{4-isobutoxy-3-[(methylsulfonyl)amino]phenyl}-1,2,4-oxadiazol-3-yl)benzoic acid] | 5.33
Cc1cc(-c2nc(-c3ccc(C(=O)O)c(F)c3)no2)ccc1N1CCOCC1 [Example 18, 2-fluoro-4-[5-(3-methyl-4-morpholin-4-ylphenyl)-1,2,4-oxadiazol-3-yl]benzoic acid] | 5.15
Cc1ccccc1-c1ccc(-c2nc(-c3ccc(S(N)(=O)=O)cc3)no2)cc1C [Example 40, 4-[5-(2,2′-dimethylbiphenyl-4-yl)-1,2,4-oxadiazol-3-yl]benzenesulfonamide] | 8.00
CCC(=O)Nc1cc(-c2nc(-c3ccc(C(=O)O)c(F)c3)no2)ccc1N1CCCCC1C (stereo not drawn) [Example 72, 2-fluoro-4-{5-[4-(2-methylpiperidin-1-yl)-3-(propionylamino)phenyl]-1,2,4-oxadiazol-3-yl}benzoic acid] | 5.07
CCc1nnn(CCNC(=O)c2ccc(-c3noc(-c4ccc(-c5ccccc5C)c(COC)c4)n3)cc2F)n1 [Example 180, N-[2-(5-ethyl-2H-tetrazol-2-yl)ethyl]-2-fluoro-4-{5-[2-(methoxymethyl)-2′-methylbiphenyl-4-yl]-1,2,4-oxadiazol-3-yl}benzamide] | 7.59
COCc1cc(-c2nc(-c3ccc(C(=O)NC(C)(C)C(=O)O)c(F)c3)no2)ccc1-c1ccccc1C [Example 129, N-(2-fluoro-4-{5-[2-(methoxymethyl)-2′-methylbiphenyl-4-yl]-1,2,4-oxadiazol-3-yl}benzoyl)-2-methylalanine] | 7.40
COCC#Cc1cc(-c2nc(-c3ccc(C(=O)O)c(F)c3)no2)ccc1-c1ccccc1C [Example 96, 2-fluoro-4-{5-[2-(3-methoxyprop-1-yn-1-yl)-2′-methylbiphenyl-4-yl]-1,2,4-oxadiazol-3-yl}benzoic acid] | 6.34
